In patent publication US11111238B2, “Coumarin derivatives, processes for their preparation and uses thereof for the treatment of cancer” (Lead Discovery Center GmbH, priority 2017, dated 2021) one finds IC50 data, which are given here for 25 compounds.

mitochondrial RNA-polymerase (POLRMT), sequence (Q8BKF1 42-1207): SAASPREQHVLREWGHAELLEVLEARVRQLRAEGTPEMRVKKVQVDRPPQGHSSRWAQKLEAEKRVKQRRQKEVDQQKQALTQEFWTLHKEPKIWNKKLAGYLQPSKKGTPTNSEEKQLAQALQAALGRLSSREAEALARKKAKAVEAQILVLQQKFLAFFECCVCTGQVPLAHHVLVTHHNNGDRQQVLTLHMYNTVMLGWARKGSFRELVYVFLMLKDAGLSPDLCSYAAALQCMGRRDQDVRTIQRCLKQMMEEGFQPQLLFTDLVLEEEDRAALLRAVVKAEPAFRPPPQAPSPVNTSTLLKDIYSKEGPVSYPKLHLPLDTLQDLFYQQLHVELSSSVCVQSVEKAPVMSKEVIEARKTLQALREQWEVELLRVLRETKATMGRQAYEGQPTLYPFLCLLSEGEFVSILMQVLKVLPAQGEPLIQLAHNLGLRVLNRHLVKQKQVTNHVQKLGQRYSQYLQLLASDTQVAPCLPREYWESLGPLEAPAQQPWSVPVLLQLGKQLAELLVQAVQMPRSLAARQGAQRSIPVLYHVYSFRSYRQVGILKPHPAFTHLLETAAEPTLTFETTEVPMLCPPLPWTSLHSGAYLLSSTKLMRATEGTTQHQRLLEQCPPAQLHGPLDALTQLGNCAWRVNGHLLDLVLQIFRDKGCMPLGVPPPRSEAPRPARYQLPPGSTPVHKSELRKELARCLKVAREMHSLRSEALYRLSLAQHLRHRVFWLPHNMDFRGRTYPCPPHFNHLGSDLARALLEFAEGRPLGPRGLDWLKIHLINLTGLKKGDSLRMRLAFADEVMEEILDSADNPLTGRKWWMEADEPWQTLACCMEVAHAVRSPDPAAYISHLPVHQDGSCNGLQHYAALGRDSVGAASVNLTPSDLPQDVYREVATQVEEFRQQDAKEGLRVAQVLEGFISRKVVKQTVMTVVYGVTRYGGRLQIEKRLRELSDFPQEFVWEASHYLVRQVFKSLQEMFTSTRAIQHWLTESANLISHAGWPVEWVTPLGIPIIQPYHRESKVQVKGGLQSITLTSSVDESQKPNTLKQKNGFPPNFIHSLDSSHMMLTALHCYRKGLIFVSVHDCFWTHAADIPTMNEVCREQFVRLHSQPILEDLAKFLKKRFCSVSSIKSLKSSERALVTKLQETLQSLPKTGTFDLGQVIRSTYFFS

This assay deals with mitochondrial RNA-polymerase (POLRMT) (Mus musculus, UniProt Q8BKF1). Description: Homogeneous TR-FRET assay for mitochondrial transcription activity. The assay is classed as biochemical. The note with it: homogeneous TR-FRET assay according to Example 4; activity class. From the text:
The TR-FRET assay was basically conducted as described in WO2016/193,231A1, especially as described in example 1 (hereby incorporated by reference). With respect to the background of the mitochondrial transcription it is referred to Falkenberg et al. (2002) and Posse et al. (Posse et al., 2015). The method monitors the activity of mitochondrial RNA-polymerase via detection of the formation of its product, a 407 bp long RNA sequence. Detection of the product is facilitated by hybridization of two DNA-oligonucleotide probes to specific and adjacent sequences within the RNA product sequence. Upon annealing of the probes, two fluorophores that are coupled directly to an acceptor nucleotide probe (ATT0647, 5′) or introduced via a coupled streptavidin interacting with a biotinylated donor nucleotide probe on the other side (Europium cryptate, 3′) are brought into sufficient proximity to serve as a fluorescence-donor-acceptor pair as generally described in Walters and Namchuk (2003). Thus, a FRET signal at 665 nm is generated upon excitation at 340 nm.
Briefly, the protocol described here was applied for screening and activity determination in a low-volume 384-well microtiter plate with non-binding surface. For high-throughput application in the 1536-well microtiter plate format, volumes of the reagent mixes were adjusted, maintaining the volumetric ratio. Proteins POLRMT (NM_172551.3), TFAM (NM_009360.4) and TFB2 M (NM_008249.4) were diluted from their stocks to working concentrations of 150 nM, 1.8 μM and 330 nM respectively, in a dilution buffer containing 100 mM Tris-HCl pH 8.0, 200 mM NaCl, 10% (v/v) glycerole, 2 mM glutathione (GSH), 0.5 mM EDTA and 0.1 mg/mL BSA. Protein dilutions and template DNA, comprising a pUC18 plasmid encoding the mitochondrial light strand promoter, restriction linearized proximal to the promoter 3′-end (pUC-LSP), were mixed at the twofold final assay-concentration in a reaction buffer, containing 10 mM Tris-HCl pH 7.5, 10 mM MgCl2, 40 mM NaCl, 2 mM GSH, 0.01% (w/v) Tween-20 and 0.1 mg/mL BSA.
5 μL of this mix were dispensed, depending on the chosen microtiter plate format, using multi-channel pipettes or a Multidrop® dispenser (Thermo Fisher Scientific, Waltham Mass.) into the wells of a microtiter plate and incubated at room temperature (RT) for 10 min. Chemical compounds under scrutiny in the assay were applied using contact-free acoustic droplet-dispensing (Echo520® Labcyte Inc., Sunnyvale Calif.) from 10 mM compound stocks in 100% DMSO, to a final concentration of 10 μM or in serial dilution series of the required concentration range. Equal amounts of DMSO without any compound were added to positive control samples, followed by an incubation step at RT for 10 min.
The enzymatic reaction was started by the addition of 5 μL of a mix of […] in reaction buffer to a final concentration of 500 μM each. No nucleotide mix was added to negative control samples. The content of the wells was mixed using a VarioTeleshaker™ (Thermo Fisher Scientific, Waltham Mass.) at 1,500 rpm for 45 sec after which the microtiter plate was centrifuged at 500×g for 1 min. The samples were incubated for 2 h at RT with humidity control to avoid evaporation. The detection reagents were prepared in a buffer that was composed, such that the enzymatic reaction was terminated due to chelating of Mg-ions and increased ionic strength, containing 50 mM Tris-HCl pH 7.5, 700 mM NaCl, 20 mM EDTA, and 0.01% (w/v) Tween-20. Importantly Eu-cryptate-coupled streptavidin had to be pre-incubated with a 100-fold molar excess of a random sequence oligonucleotide for 10 min at RT in the dark to block unspecific binding of single stranded RNA to the protein. Subsequently, the blocked streptavidin(—Eu) was mixed with the DNA-probes on ice and kept away from light until use. […]
What is called IC50 is the concentration needed to halve the response being measured. Read a low IC50 as higher potency. `C[C@@H](Oc1ccc2c(-c3ccc(F)cc3Cl)cc(=O)oc2c1)C(=O)Nc1cncc(C(=O)O)c1` [Compound 148, 5-[[(2R)-2-[4-(2-chloro-4-fluoro-phenyl)-2-oxo-chromen-7-yl]oxypropanoyl]amino]pyridine-3-carboxylic acid] showed an IC50 below 20 nM.

The compound `CC(Oc1ccc2c(-c3ccccc3Cl)cc(=O)oc2c1)C(=O)N1CCCC(c2nn[nH]n2)C1` (stereo not shown) [Compound 39, 4-(2-chlorophenyl)-7-[1-methyl-2-oxo-2-[3-(2H-tetrazol-5-yl)-1-piperidyl]ethoxy]chromen-2-one] returned an IC50 below 20 nM.

`Cc1ccccc1-c1cc(=O)oc2cc(O[C@H](C)C(=O)N3CCCCC3)ccc12` [Compound 30, 7-[(1R)-1-methyl-2-oxo-2-(1-piperidyl)ethoxy]-4-(o-tolyl)chromen-2-one]: the IC50 was below 20 nM.

Consider `Cc1ccccc1-c1cc(=O)oc2cc(O[C@H](C)C(=O)OC(C)C)ccc12` [Compound 55, (R)-isopropyl 2-((2-oxo-4-(o-tolyl)-2H-chromen-7-yl)oxy)propanoate], for which the IC50 was below 20 nM.

In the case of `C[C@@H](Oc1ccc2c(-c3ccccc3Cl)cc(=O)oc2c1)C(=O)N1CCC[C@@H](CC(=O)O)C1` [Compound 102, 2-[(3S)-1-[(2R)-2-[4-(2-chlorophenyl)-2-oxo-chromen-7-yl]oxypropanoyl]-3-piperidyl]acetic acid], the 50% inhibitory concentration (IC50) was below 20 nM.

As for `Cc1ccccc1-c1cc(=O)oc2cc(OC(C)C(=O)N3CCCC(CC(=O)O)C3)ccc12` (stereo not shown) [Compound 72, 2-[1-[2-[4-(o-tolyl)-2-oxo-chromen-7-yl]oxypropanoyl]-3-piperidyl]acetic acid], the IC50 fell in the range of 20 to 100 nM.

As for `COC(=O)C[C@@H]1CCCN(C(=O)[C@@H](C)Oc2ccc3c(-c4ccccc4Cl)cc(=O)oc3c2)C1` [Compound 100, methyl 2-[(3S)-1-[(2R)-2-[4-(2-chlorophenyl)-2-oxo-chromen-7-yl]oxypropanoyl]-3-piperidyl]acetate], the 50% inhibitory concentration (IC50) was below 20 nM.

`CCOC(=O)C(C)Oc1ccc2c(-c3c(F)cccc3F)cc(=O)oc2c1` (stereo not shown) [Compound 176, ethyl 2-[4-(2,6-difluorophenyl)-2-oxo-chromen-7-yl]oxypropanoate] yielded an IC50 of 1000 to 5000 nM.

The compound `CCOC(=O)C(C)Oc1ccc2c(-c3ccccc3F)cc(=O)oc2c1` (stereo not shown) [Compound 175, ethyl 2-[4-(2-fluorophenyl)-2-oxo-chromen-7-yl]oxypropanoate] yielded a half-inhibitory concentration (IC50) of 100 to 1000 nM.

`C[C@@H](Oc1ccc2c(-c3ccccc3Cl)cc(=O)oc2c1)C(=O)N1CC[C@H](C(=O)O)C1` [Compound 29, (3S)-1-[2-[4-(2-chlorophenyl)-2-oxo-chromen-7-yl]oxypropanoyl]pyrrolidine-3-carboxylic acid] yielded an IC50 below 20 nM.

`C[C@@H](Oc1ccc2c(-c3ccc(F)cc3Cl)cc(=O)oc2c1)C(=O)Nc1ccc(CO)cc1` [Compound 130, (2R)-2-[4-(2-chloro-4-fluoro-phenyl)-2-oxo-chromen-7-yl]oxy-N-[4-(hydroxymethyl)phenyl]propanamide]: the concentration for half-maximal inhibition (IC50) was below 20 nM.

As for `C[C@@H](Oc1ccc2c(-c3ccc(F)cc3Cl)cc(=O)oc2c1)C(=O)Nc1cccc(C(=O)O)n1` [Compound 151, 6-[[(2R)-2-[4-(2-chloro-4-fluoro-phenyl)-2-oxo-chromen-7-yl]oxypropanoyl]amino]pyridine-2-carboxylic acid], the concentration for half-maximal inhibition (IC50) is below 20 nM.

Take `CC(Oc1ccc2c(-c3ccccc3Cl)cc(=O)oc2c1)C(=O)N1CCCC(S(=O)(=O)O)C1` (stereo not shown) [Compound 11, 1-[2-[4-(2-chlorophenyl)-2-oxo-chromen-7-yl]oxypropanoyl]piperidine-3-sulfonic acid]: the 50% inhibitory concentration (IC50) is below 20 nM.

Turning to `C[C@@H](Oc1ccc2c(-c3ccccc3Cl)cc(=O)oc2c1)C(=O)N1CCC[C@H](C#N)C1` [Compound 28, (3S)-1-[(2R)-2-[4-(2-chlorophenyl)-2-oxo-chromen-7-yl]oxypropanoyl]piperidine-3-carbonitrile], the IC50 is below 20 nM.

`COCCc1ccc(NC(=O)[C@@H](C)Oc2ccc3c(-c4ccc(F)cc4Cl)cc(=O)oc3c2)cc1` [Compound 140, (2R)-2-[4-(2-chloro-4-fluoro-phenyl)-2-oxo-chromen-7-yl]oxy-N-[4-(2-methoxyethyl)phenyl]propanamide] registered a half-inhibitory concentration (IC50) of 100 to 1000 nM.

`C[C@@H](Oc1ccc2c(-c3ccc(F)cc3Cl)cc(=O)oc2c1)C(=O)Nc1ccc(C(=O)O)nc1` [Compound 154, 5-[[(2R)-2-[4-(2-chloro-4-fluoro-phenyl)-2-oxo-chromen-7-yl]oxypropanoyl]amino]pyridine-2-carboxylic acid] gave an IC50 below 20 nM.

`Cc1ccccc1-c1cc(=O)oc2cc(OC(C)C(=O)N3CCCC(S(C)(=N)=O)C3)ccc12` (stereo not shown) [Compound 73, 7-[1-methyl-2-[3-(methylsulfonimidoyl)-1-piperidyl]-2-oxo-ethoxy]-4-(o-tolyl)chromen-2-one] gave an IC50 of 20 to 100 nM.

`CCOC(=O)[C@H]1CCCN(C(=O)C(CC)Oc2ccc3c(-c4ccccc4Cl)cc(=O)oc3c2)C1` (stereo partly drawn) [Compound 109, ethyl (3S)-1-[2-[4-(2-chlorophenyl)-2-oxo-chromen-7-yl]oxybutanoyl]piperidine-3-carboxylate]: the half-maximal inhibitory concentration (IC50) was in the range of 20 to 100 nM.

The compound `CCOC(=O)[C@H]1CCCN(C(=O)C(C)Oc2ccc3c(-c4ccccc4C)cc(=O)oc3c2)C1` (stereo partly drawn) [Compound 17, ethyl (3S)-1-[2-[4-(o-tolyl)-2-oxo-chromen-7-yl]oxypropanoyl]piperidine-3-carboxylate] showed an IC50 below 20 nM.

Regarding `COC(=O)C[C@H]1CCN(C(=O)[C@@H](C)Oc2ccc3c(-c4ccc(F)cc4Cl)cc(=O)oc3c2)C1` [Compound 142, methyl 2-[(3R)-1-[(2R)-2-[4-(2-chloro-4-fluoro-phenyl)-2-oxo-chromen-7-yl]oxypropanoyl]pyrrolidin-3-yl]acetate], the half-maximal inhibitory concentration (IC50) lay in the range of 20 to 100 nM.

Compound `CC(Oc1ccc2c(-c3ccccc3Cl)cc(=O)oc2c1)C(=O)N1CCC[C@H](C(=O)N(C)C)C1` (stereo partly drawn) [Compound 76, (3S)-1-[2-[4-(2-chlorophenyl)-2-oxo-chromen-7-yl]oxypropanoyl]-N,N-dimethyl-piperidine-3-carboxamide] had a 50% inhibitory concentration (IC50) of 20 to 100 nM.

`CC(Oc1ccc2c(-c3ccccc3Cl)cc(=O)oc2c1)C(=O)N1CCC[C@@H](C(=O)O)C1` (stereo partly drawn) [Compound 46, (3R)-1-[2-[4-(2-chlorophenyl)-2-oxo-chromen-7-yl]oxypropanoyl]piperidine-3-carboxylic acid] yielded an IC50 below 20 nM.

In turn, `COC(=O)CC1CCN(C(=O)C(C)Oc2ccc3c(-c4ccccc4C)cc(=O)oc3c2)CC1` (stereo not shown) [Compound 83, methyl 2-[1-[2-[4-(o-tolyl)-2-oxo-chromen-7-yl]oxypropanoyl]-4-piperidyl]acetate] displayed an IC50 of 20 to 100 nM.

With `COC(=O)C1CN(C(=O)[C@@H](C)Oc2ccc3c(-c4ccc(F)cc4Cl)cc(=O)oc3c2)CCN1C` (mixture of isomers) [Compound 137, methyl 1-methyl-4-[rac-(2R)-2-[4-(2-chloro-4-fluoro-phenyl)-2-oxo-chromen-7-yl]oxypropanoyl]piperazine-2-carboxylate], the half-maximal inhibitory concentration (IC50) fell in the range of 100 to 1000 nM.

As for `CCOC(=O)C1(C)CCCN(C(=O)C(C)Oc2ccc3c(-c4ccc(F)cc4Cl)cc(=O)oc3c2)C1` (stereo not shown) [Compound 95, ethyl 1-[2-[4-(2-chloro-4-fluoro-phenyl)-2-oxo-chromen-7-yl]oxypropanoyl]-3-methyl-piperidine-3-carboxylate], the concentration for half-maximal inhibition (IC50) fell in the range of 100 to 1000 nM.
